# Source: US6346201B1, “Ozonated solutions of tetrasilver tetroxide” (priority 2000, dated 2002)
# Read-outs that look alike come from different tables or passages of the source.
# How the values were obtained:
# Bacillus subtilis spores = assay: Bacillus subtilis spore survival by MALS, AODC and 24-hour CFU count; format: cell-based
# Method: The efficacy of ozone in the absence of tetrasilver tetroxide was evaluated by challenging Bacillus subtilis spores with 2 ppm ozone and measuring the survival rate over time by MALS, acridine orange direct counts (AODC) and by counting colony forming units (CFU) at 24 hours.
# Bacillus subtilus spore suspensions in water were challenged with 2 ppm tetrasilver tetroxide and […] ozone to evaluate the killing efficacy of the combination. The survival rate over time was measured by MALS, AODC and counting colony forming units at 24 hours.
# [1] = Method: Ozone concentrations were measured by a chemical oxidation of indigo dye by using an indigo dye […] manufactured by HACH, Inc.
# 6.1 mg/L (6.1 ppm) of ozone was provided in deionized, distilled water over a 15 minute period. The solution was allowed to stand with stirring by a magnetic stirrer over a 24-hour period, taking periodic readings of the ozone concentration.
# E. coli K12 = conditions: 10 ppm or less tetrasilver tetroxide, within 30 minutes, other studies; cited from earlier work
# E. coli = assay: Ozone kill of E. coli test culture; format: cell-based; conditions: 3.2 ppm ozone, 1 minute
# Method: (§1) Ozone is, of course, effective against enteric pathogens. For example, adding 3.2 ppm 03 to a test culture kills 1.95×10^6 cells/mL of E. coli in 1 minute and kills 1.5×10^6 cells/mL of P. aeruginosa in 1 minute.
# P. aeruginosa = assay: Ozone kill of P. aeruginosa test culture; format: cell-based; conditions: 3.2 ppm ozone, 1 minute
# Method: as §1
# [2] = B. subtilis spores, 2 ppm ozone, treatment time 0
# [3] = B. subtilis spores, 2 ppm ozone, treatment time 5
# [4] = B. subtilis spores, 2 ppm ozone, treatment time 10
# [5] = B. subtilis spores, 2 ppm ozone, treatment time 15
# [6] = B. subtilis spores, 2 ppm ozone, treatment time 20
# [7] = B. subtilis spores, 2 ppm ozone, treatment time 30
smiles,measurement,setting,value
[Ag+].[Ag+].[Ag+].[Ag+].[O-2].[O-2].[O-2].[O-2] [tetrasilver tetroxide],"antimicrobial effect (MALS graph, FIG. 3)",Bacillus subtilis spores; sixty-minute treatment with 2 ppm tetrasilver tetroxide,little more effective than the untreated control
same,measurable oxidation as measured by the indigo dye method,[1]; without ozone,neither
same,kills % of E. coli K12 strain,E. coli K12,100%
O=[O+][O-] [ozone],MALS log intensity vs time of exposure (FIG. 1),"Bacillus subtilis spores; B. subtilis spores, 2 ppm ozone, increasing time of exposure",reduction in the log intensity
same,24-Hour Count,Bacillus subtilis spores; [2],2.10 × 10^6 cfu/mL
same,24-Hour Count % AODC,Bacillus subtilis spores; [2],100 % AODC
same,24-Hour Count % control,Bacillus subtilis spores; [2],100 % control
same,AODC,Bacillus subtilis spores; [2],2.34 × 10^6 spores/mL
same,AODC % control,Bacillus subtilis spores; [2],100 % control
same,MALS % control,Bacillus subtilis spores; [2],100 % control
same,MALS intensity,Bacillus subtilis spores; [2],2436.6
same,24-Hour Count,Bacillus subtilis spores; [3],1.23 × 10^6 cfu/mL
same,24-Hour Count % AODC,Bacillus subtilis spores; [3],76.9 % AODC
same,24-Hour Count % control,Bacillus subtilis spores; [3],58.5 % control
same,AODC,Bacillus subtilis spores; [3],1.6 × 10^6 spores/mL
same,AODC % control,Bacillus subtilis spores; [3],68.3 % control
same,MALS % control,Bacillus subtilis spores; [3],65.33 % control
same,MALS intensity,Bacillus subtilis spores; [3],1591.92
same,24-Hour Count,Bacillus subtilis spores; [4],1.68 × 10^5 cfu/mL
same,24-Hour Count % AODC,Bacillus subtilis spores; [4],14.5 % AODC
same,24-Hour Count % control,Bacillus subtilis spores; [4],8.0 % control
same,AODC,Bacillus subtilis spores; [4],1.16 × 10^6 spores/mL
same,AODC % control,Bacillus subtilis spores; [4],49.5 % control
same,MALS % control,Bacillus subtilis spores; [4],51.89 % control
same,MALS intensity,Bacillus subtilis spores; [4],1264.26
same,24-Hour Count,Bacillus subtilis spores; [5],1.80 × 10^3 cfu/mL
same,24-Hour Count % AODC,Bacillus subtilis spores; [5],0.14 % AODC
same,24-Hour Count % control,Bacillus subtilis spores; [5],0.09 % control
same,AODC,Bacillus subtilis spores; [5],1.29 × 10^6 spores/mL
same,AODC % control,Bacillus subtilis spores; [5],55.1 % control
same,MALS % control,Bacillus subtilis spores; [5],42.67 % control
same,MALS intensity,Bacillus subtilis spores; [5],1039.64
same,24-Hour Count,Bacillus subtilis spores; [6],1.82 × 10^2 cfu/mL
same,24-Hour Count % AODC,Bacillus subtilis spores; [6],0.04 % AODC
same,24-Hour Count % control,Bacillus subtilis spores; [6],0.009 % control
same,AODC,Bacillus subtilis spores; [6],4.87 × 10^5 spores/mL
same,AODC % control,Bacillus subtilis spores; [6],20.8 % control
same,MALS % control,Bacillus subtilis spores; [6],34.94 % control
same,MALS intensity,Bacillus subtilis spores; [6],851.5
same,24-Hour Count,Bacillus subtilis spores; [7],10 cfu/mL
same,24-Hour Count % AODC,Bacillus subtilis spores; [7],0.002 % AODC
same,24-Hour Count % control,Bacillus subtilis spores; [7],0.00005 % control
same,AODC,Bacillus subtilis spores; [7],5.03 × 10^5 spores/mL
same,AODC % control,Bacillus subtilis spores; [7],21.5 % control
same,MALS % control,Bacillus subtilis spores; [7],27.96 % control
same,MALS intensity,Bacillus subtilis spores; [7],681.2
same,"antimicrobial effect (MALS graph, FIG. 3)",Bacillus subtilis spores; twenty-minute treatment with 0.3 ppm ozone,significant killing effect
same,cells killed,E. coli,1.95×10^6 cells/mL
same,cells killed,P. aeruginosa,1.5×10^6 cells/mL
same,ozone at 18 hours relative to that expected in the absence of tetrasilver tetroxide,"[1]; 2 ppm tetrasilver tetroxide added, 18 hours",approximately an order of magnitude higher
same,ozone concentration,"[1]; 2 ppm tetrasilver tetroxide added, after 18 hours",0.12 ppm
same,ozone oxidizing activity,"[1]; 2 ppm tetrasilver tetroxide added, by 24 hours",0.03 ppm
same,half-life of ozone,"[1]; 6.1 ppm ozone initially in deionized, distilled water, no tetrasilver tetroxide",approximately 2 hours
same,ozone concentration,"[1]; 6.1 ppm ozone initially in deionized, distilled water, stirred, by 2 hours",3 ppm
same,ozone concentration,"[1]; 6.1 ppm ozone initially in deionized, distilled water, stirred, by 18 hours",0.01 ppm
